Converted amounts (≈) assume the structure as drawn. “And” between values parts separate entries of the source, which are not always exact repeats. Equal values may be shown once. Read-outs that look alike come from different tables or passages of the source.
What was measured:
[1] = system: C. neoformans cells; assay: Cell death pattern analysis by flow cytometry (Annexin V-FITC/PI); assay type: cell-based, Cryptococcus neoformans; details: treated at MIC, 12 h; PI + annexin V-FITC
Description: Apoptosis includes a series of events occurring inside the cell, causing changes in plasma membrane, genetic material and various internal proteins, therefore leading to programmed cell death. One of the early markers of apoptosis is the translocation of a membrane phospholipid, phosphatidylserine, from the inner to the outer leaflet of the plasma membrane without altering the integrity of the plasma membrane. Annexin V-FITC interacts with the externalized phosphatidylserine, therefore showing the cell change towards apoptosis which can be analyzed using flow cytometry. The four quadrants in flow cytometry indicate different stages of the cells. The percentage depicts the population of the cells in a specific stage. Q1 corresponds to the percentage of cells undergoing necrosis, Q2 depicts the early apoptotic stage of the cells whereas Q4 corresponds to the cells in late-stage apoptosis and Q3 depicts the cells in the native state.
The treated cells along with a batch of untreated cells were centrifuged at 2000× g for 10 min at 4 °C and suspended in cold phosphate-buffered saline (PBS), followed by 2–3 washings with PBS. The harvested treated and untreated cells were then incubated with zymolyase for 1 h at ambient temperature to obtain cell protoplasm. The staining of obtained protoplasm was done using an Annexin V-FITC detection kit (Sigma-Aldrich, Saint Louis, DE, USA). The protoplasm of untreated cells was divided into 4 tubes (2 mL) and into 3 tubes a different staining agent was added while one was kept unstained. […] Furthermore, two more samples were prepared where protoplasm of 10d- and 10o-treated cells were stained with both PI and annexin V-FITC. All 6 samples were then analyzed by using an FACS Calibur (Becton-Dickinson, San Jose, CA, USA) at excitation of 488 nm (for FITC) and 560 nm (for PI) band filter. Approximately 10,000 cells were used for counting.

[2] = system: C. albicans; assay: microbe, parasite or virus in culture; assay type: cell-based, Candida albicans; details: 48 h
Outline: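 Growth inhibition was measured by broth microdilution. MIC and IC50 were calculated from optical density at 600 nm after 48 h at 30 °C for Candida and Cryptococcus (10^3 CFU/mL, RPMI 1640 or YPED) and after 24 h at 37 °C for the Gram-positive bacteria (10^5 CFU/mL, Mueller Hinton).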

[3] = system: C. neoformans cells; assay: CLSM FITC-labeled peptide uptake assay; assay type: cell-based, Cryptococcus neoformans; details: FITC-tagged peptide, 12 h
Experimental: After incubation, cells were harvested by centrifugation at 2000× g for 10 min at 4 °C and suspended in PBS and mounted on a slide for visualization under a confocal microscope with excitation and emission wavelengths of 488 nm and 515 nm, respectively.

[4] = system: S. aureus; assay: microbe, parasite or virus in culture; assay type: cell-based, Staphylococcus aureus; details: 48 h
Description: Microbial strains: Microbial strains were procured from National Culture Collection of Pathogenic Fungi (NCCPF) at the Postgraduate Institute of Medical Education & Research (PGIMER), Chandigarh and Microbial Type Culture Collection and Gene bank (MTCC) at the Institute of Microbial Technology (IMTECH), Chandigarh, India. Peptides were screened against five different strains of fungi: viz. Candida albicans (NCCPF400034), Candida glabrata (MTCC 3019), Candida parapsilosis (NCCPF 440002), Candida krusei (NCCPF 440002) and Cryptococcus neoformans (NCCPF250316), and five strains of bacteria: viz. Escherichia coli (MTCC 2961), Staphylococcus aureus (MTCC 3160), Enterococcus faecalis (MTCC 439), Streptococcus pyogenes (MTCC 442) and Pseudomonas aeruginosa (MTCC 3542).
Growth media: Antifungal susceptibility testing was carried out using standard broth microdilution assays as per the Clinical and Laboratory Standards Institute (CLSI) guidelines for fungi. RPMI 1640 (Sigma), yeast extract, peptone and dextrose (YPED, Himedia) were used as the incubation broths. The cells were diluted to a cell density of 10^3 colony forming unit (CFU/mL) and incubated at 30 °C for 48 h. Furthermore, Muller Hinton (Himedia) media was utilized for bacterial strains and antibacterial activity was evaluated per CLSI guidelines for bacteria. […] Amphotericin B (Himedia, India) and rifampicin (Himedia, India) were used as standard drugs for the evaluation of activity against all the fungal and bacterial strains, respectively.
The stock solutions of peptides (2 mg/mL) were prepared in DMSO. Specific amounts of peptide from stock solution were added to a 96-well microtiter plate containing 100 μL of growth media and then serially diluted two-fold. A further 100 μL of growth media containing microbial cells were added to each well and incubated at 30–37 °C for 24–48 h. The optical density (OD) was measured at 600 nm using a BioStack Ready (BioTek Instruments, Winooski, VT, USA) microplate reader to analyze microbial growth inhibition, and IC50 and MIC values were calculated. To visualize the growth and inhibition pattern, a solution of 3-(4,5-dimethylthiazol-2-yl)-2,5-diphenyltetrazolium bromide (MTT) in water was added to the plate and incubated for 2–3 h. MTT reacts with the mitochondrial dehydrogenases, which are present only in a viable cell, to give blue colored formazan crystals. Therefore, a darker color indicates a high number of viable cells; however, non-viable cells appear pale or colorless.

[5] = system: Cryptococcal cells; details: for MIC Alone: cryptococcal cells, agent alone
[6] = system: P. aeruginosa; assay: microbe, parasite or virus in culture; assay type: cell-based, Pseudomonas aeruginosa; details: 48 h
[7] = in vitro; details: human, HeLa cells
Experimental: The cells (50,000 cells/well) were seeded to the wells of the plate in Dulbecco’s Modified Eagle Medium (DMEM) supplemented with 10% fetal bovine serum at 37 °C overnight and incubated for 24 h to achieve confluency. Peptides at different concentrations of 50, 25, 12.5, 6.25, 3.12, 1.56 and 0.78 μg/mL were added to the cells in separate wells and incubated at 37 °C for 18 h. A further 20 µL MTT solution (5 mg/mL stock conc. in PBS) was added and the plate was incubated for another 3–4 h. To detect the viable cells that react with MTT to make formazan crystals, 120 μL of supernatant was removed and 100 μL DMSO was added to dissolve the crystals. Untreated cells and DMSO (10%) were used as negative and positive controls, respectively [37]. The percent viability of cells was calculated using equation:(2) % Cell viability=Av. Absorbance of treated cells/Av. Absorbance of control cells×100

[8] = system: C. neoformans (ATCC350) cells; assay: CLSM DAPI uptake assay; assay type: cell-based, Cryptococcus neoformans; details: at MIC, 12 h, then DAPI
Experimental: After incubation, treated and untreated cells were centrifuged at 2000× g for 10 min at 4 °C and suspended in cold PBS and followed by 2–3 washings with PBS. The cells were then incubated with DAPI (3.01 μM) for 10 min at room temperature with constant shaking, harvested by centrifugation and suspended in PBS. Then, the fungal cells were examined using confocal microscopy (Olympus Fluoview™ FV1000 SPD; Olympus, Tokyo, Japan) with excitation at 350 nm and emission at 470 nm.

Row | Structure (SMILES) | Cell population in Q1 (necrosis) [1] | Cell population in Q2 (early apoptotic stage) [1] | Cell population in Q3 (native state) [1] | Cell population in Q4 (late-stage apoptosis) [1] | IC50 [2] | MIC [2] | Fluorescence of cells incubated with FITC-labeled peptide (CLSM) [3] | IC50 [4] | MIC [4] | MIC Alone [5] | IC50 [6] | MIC [6] | CC50 at 18 h [7] | DAPI fluorescence of treated cells (CLSM) [8] | also measured
1 | COC(=O)[C@H](Cc1ncn(Cc2ccccc2I)c1I)NC(=O)[C@@H](N)Cc1c[nH]c2ccccc12 [10o, Trp-His[1-(2-iodobenzyl)-5-iodo]-OMe] | 2% | 1% | 48.9% | 48.1% | >35.2 µg/mL | >64.0 µg/mL | prominent green fluorescence | >35.2 µg/mL | >64.0 µg/mL | 4.59 µg/mL (≈ 6.58 µM) | >35.2 µg/mL | >64.0 µg/mL | > 100 µg/mL | fragmented bright blue fluorescence | MIC In Combination ([5]; combination 10o + Amp B): 0.287 µg/mL; Effect ([5]; combination 10o + Flu): Additive; Fold Decrease in MIC ([5]; combination 10o + Flu): 1.5; MIC In Combination ([5]; combination 10o + Flu): 2.999 µg/mL
2 | COC(=O)[C@H](Cc1ncn(Cc2cc(C(C)(C)C)cc(C(C)(C)C)c2)c1I)NC(=O)[C@@H](N)Cc1c[nH]c2ccccc12 [10d, Trp-His[1-(3,5-di-tert-butylbenzyl)-5-iodo]-OMe] | 1.7% | 1.3% | 44.8% | 52.2% | >35.2 µg/mL | >64.0 µg/mL | prominent green fluorescence | 17.6 µg/mL (≈ 25.7 µM) | 32.0 µg/mL (≈ 46.8 µM) | 4.01 µg/mL (≈ 5.87 µM) | >35.2 µg/mL | >64.0 µg/mL | > 100 µg/mL | fragmented bright blue fluorescence | Fold Decrease in MIC ([5]; combination 10d + Amp B): 16; MIC In Combination ([5]; combination 10d + Amp B): 0.25 µg/mL and 0.250 µg/mL; FICI ([5]; combination 10d + Flu): 0.19; MIC In Combination ([5]; combination 10d + Flu): 0.501 µg/mL

Source: publication PMC9821961, “Ring-Modified Histidine-Containing Cationic Short Peptides Exhibit Anticryptococcal Activity by Cellular Disruption” (Molecules, 2022)
